# Measured values as given in paper PMC5025041 (Journal of chromatography. A, 2015).
# Like-named read-outs stand apart in the source and are kept apart here.
# Experiments:
# [1] = human, in vivo
# [2] = human, in vivo; remark: listed apart in the source
# P-glycoprotein (Pgp) = conditions: not told; cited from earlier work
# [3] = subject 8 dosed with O-DVX, with indinavir therapy, 1 hr and 4 hrs
# Pgp = conditions: in vitro models; cited from earlier work
# CYP3A4 = conditions: cited from earlier work
compound,measurement,setting,value
"CN(C)CC(c1ccc(O)cc1)C1(O)CCCCC1 (centres unmarked) [O-DVX, O-desmethylvenlafaxine]",peak height ratio S- to R-enantiomer in plasma,[1],0.50-15.2
same,S/R ratio of peak height in plasma,[2]; 1 h,0.83
same,S/R ratio of peak height in plasma,[2]; 4 h,0.98
same,substrate of the drug transporter P-glycoprotein (Pgp),P-glycoprotein (Pgp),substrates
same,S/R ratio of peak height in plasma,[3],remains less than one
"COc1ccc(C(CN(C)C)C2(O)CCCCC2)cc1 (centres unmarked) [VX, venlafaxine]",substrate of the drug transporter P-glycoprotein (Pgp),P-glycoprotein (Pgp),substrates
CC(C)(C)NC(=O)[C@@H]1CN(Cc2cccnc2)CCN1C[C@@H](O)C[C@@H](Cc1ccccc1)C(=O)N[C@H]1c2ccccc2C[C@H]1O [indinavir],inhibition of Pgp,Pgp,potent inhibitor
CC(=O)N1CCN(c2ccc(OCC3COC(Cn4ccnc4)(c4ccc(Cl)cc4Cl)O3)cc2)CC1 (centres unmarked) [ketoconazole],reduction of N-desmethyl VX formation,CYP3A4,42%
